Assay results as given in US20050106592A1, “Method for identifying a pharmacologically active substance” (priority 2002, published 2005).

Legend:
normotensive Wister rats = assay: bradykinin-potentiating effect: blood pressure measurement in anaesthetized normotensive rats; type: in vivo, rat
Description: These experiments were conducted with normotensive rats and the short-time decrease of blood pressure induced by bradykinin (and caused by vasodilatation) was measured. […] Furthermore, S545 (also corresponds to proANP48-57) was also tested in vivo at hypertensive rats (FIG. 7).
In the in vivo experiments with normotensive rats the animals were previously anaesthetized and after blood pressure stabilization treated with a constant amount of bradykinin. Subsequently, either Captopril or human BPP were administered, again followed by a constant amount of bradykinin. Afterwards the maximal blood pressure drop was determined and, on the basis of bradykinin as a factor 1, the potentiating factor was determined. In the same way, the systolic and diastolic blood pressure, the percentage middle pressure decrease and the time required to come back to the baseline values were measured (see tables 4a to 4j). A detailed experimental description is given below.
The trials were conducted on female anaesthetized normotensive Wister rats with weight ranging from 210 to 240 g.
The peptide pANP48-57 used for the in vivo assays was synthesized by Biosynthan (Berlin) with a HPLC-determined purity of 98%. […]
The middle pressure was determined from the measured diastolic (pd) and systolic (ps) blood pressure by using the following formula: pm=(ps−pd)×0.42+pd.

[1] = target: T1, ACE from pig kidney (EC 3.4.15.1) (Sus scrofa, UniProt F1RRW5); type: biochemical; settings: relative to Captopril
T1 construct: angiotensin-converting-enzyme derived from pig kidney; purchased Sigma; host or cells: pig kidney (tissue-derived enzyme)
T1 sequence (F1RRW5 34-1309): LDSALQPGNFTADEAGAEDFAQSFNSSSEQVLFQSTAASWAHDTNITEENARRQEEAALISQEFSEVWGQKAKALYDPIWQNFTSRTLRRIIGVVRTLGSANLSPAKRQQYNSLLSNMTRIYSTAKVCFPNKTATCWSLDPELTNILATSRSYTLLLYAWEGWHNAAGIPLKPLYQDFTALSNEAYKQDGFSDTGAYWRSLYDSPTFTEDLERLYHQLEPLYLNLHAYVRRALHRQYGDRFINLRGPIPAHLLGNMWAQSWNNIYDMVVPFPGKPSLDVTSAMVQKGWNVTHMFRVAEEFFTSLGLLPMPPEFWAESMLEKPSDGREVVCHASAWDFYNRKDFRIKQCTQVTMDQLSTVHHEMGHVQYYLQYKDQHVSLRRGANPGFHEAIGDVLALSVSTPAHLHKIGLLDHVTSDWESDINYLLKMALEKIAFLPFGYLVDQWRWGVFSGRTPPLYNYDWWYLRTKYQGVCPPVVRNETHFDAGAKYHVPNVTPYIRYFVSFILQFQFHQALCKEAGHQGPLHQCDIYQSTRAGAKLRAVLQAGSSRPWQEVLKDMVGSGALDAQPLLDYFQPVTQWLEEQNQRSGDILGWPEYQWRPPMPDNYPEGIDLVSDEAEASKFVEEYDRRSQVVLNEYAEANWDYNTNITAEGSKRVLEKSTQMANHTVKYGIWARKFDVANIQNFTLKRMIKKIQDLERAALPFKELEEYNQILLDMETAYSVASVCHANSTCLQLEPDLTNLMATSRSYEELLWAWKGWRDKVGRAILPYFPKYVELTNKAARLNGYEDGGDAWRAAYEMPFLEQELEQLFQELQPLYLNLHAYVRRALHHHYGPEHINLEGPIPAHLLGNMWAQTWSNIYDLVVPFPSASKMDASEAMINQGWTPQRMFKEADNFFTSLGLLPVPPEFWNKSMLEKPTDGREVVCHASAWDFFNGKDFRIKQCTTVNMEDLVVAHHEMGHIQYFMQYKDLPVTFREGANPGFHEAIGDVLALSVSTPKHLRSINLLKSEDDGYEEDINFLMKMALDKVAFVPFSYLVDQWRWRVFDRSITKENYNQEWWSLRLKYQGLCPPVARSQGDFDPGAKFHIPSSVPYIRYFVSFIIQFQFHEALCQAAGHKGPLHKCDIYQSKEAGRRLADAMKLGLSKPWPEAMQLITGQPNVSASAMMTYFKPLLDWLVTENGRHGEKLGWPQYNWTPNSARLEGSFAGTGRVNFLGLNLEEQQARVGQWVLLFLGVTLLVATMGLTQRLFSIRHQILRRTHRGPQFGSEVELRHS
Description: These peptides were investigated for their inhibitory effect using an in vitro-ACE-inhibitor-assay with an angiotensin-converting-enzyme derived from pig kidney. Hippuryl-histidyl-leucin was used as a substrate.
The assay was performed in 96 well HTRF-plates (Packard). The concentrations used for each well were: 1 mU ACE from pig kidney (EC 3.4.15.1 (Sigma)) in 30 μl of assay buffer (25 mM HEPES; 0,3 M NaCl, pH 8.2) and 20 μl inhibitor dissolved in assay buffer (0.35-200 μM). The reaction was started by adding 50 μl of 2 mM hippuryl-histidyl-leucin (Sigma) in assay buffer. The reaction was performed at room temperature (22° C.) for 30 minutes and terminated by adding 50 μl 1 M NaOH. Afterwards 50 μl of 0.5% ortho-phtalaldehyd (Sigma) in methanol were added, 5 minutes later followed by 50 μl of 2.5 M HCl-solution to stabilize the developed fluorescence product.
The results were used to calculate the % inhibition. The IC50-values were determined graphically from a curve showing the dose-reaction ratio.
In order to minimize errors due to time-dependent differences, all pipetting steps were performed in a precise time schedule.

## CC(C)C[C@H](NC(=O)[C@H](C)N)C(=O)N[C@@H](CO)C(=O)N1CCC[C@H]1C(=O)N[C@@H](CC(C)C)C(=O)N1CCC[C@H]1C(=O)N[C@@H](CCC(=O)O)C(=O)N[C@H](C(=O)N1CCC[C@H]1C(=O)N1CCC[C@H]1C(=O)O)C(C)C [Peptide S545]
Normotensive Wister rats; in vivo, relative to Captopril
  molecular concentration required for the bradykinin-potentiating effect in vivo in comparison to Captopril: 10 fold
Normotensive Wister rats; normotensive rats, anaesthetized, i.v.
  bradykinin-potentiating effect (short-time decrease of blood pressure induced by bradykinin): concentration dependent bradykinin-potentiating
[1]
  dose necessary in the ACE-assay to reach the same effect as with Captopril: 1000 fold
